One data set has as its target T1, EP2 receptor (Homo sapiens, UniProt P43116).
T1 construct: expressed in transfected cells; host or cells: CHO-K1 cells (ATCC), transient transfection with FuGENE 6
The experiment in a line: EP2 Potency Assay (cAMP TR-FRET, CHO-K1 cells transfected with EP2 receptor, PGE2 at EC80). It is filed as cell-based. To be noted: CHO-K1 cells expressing EP2, prostaglandin E2 at EC80, read-out: EP2 Potency (IC50 category). In outline:
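CHO-K1 cells transiently transfected with EP2 and seeded 24 h after transfection. IC50 from curve fit of percent inhibition versus concentration.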
(In general: In TR-FRET formats the signal depends on donor and acceptor labels being close together.)

Data set [1] can be described thus: Human Hepatocyte Stability. It counts as in vitro ADME. Conditions: human hepatocytes 0.5×10^6 cells/mL, 120 min; for half-life at 1 μM: read-out: T1/2 (hepatic); for microsomal CLint at 1 μM: read-out: in vitro CLint (hepatic). The protocol:
The tested compound was incubated in duplicate with incubation media (Williams' Medium E with 1× GlutaMAX) containing human hepatocytes (0.5×10^6 cells/mL). These incubations were carried out at a final test concentration of 1 μM over a total incubation period of 120 minutes. Samples were taken at 0, 15, 30, 60, 90 and 120 min and the reaction was terminated by addition of acetonitrile containing internal standard (100 nM alprazolam, 200 nM labetalol, 200 nM caffeine and 200 nM diclofenac). Verapamil was used as the positive control in this study. The samples were analyzed by UPLC-MS/MS to determine the concentration of the tested compound and the percentage remaining, intrinsic clearance (in vitro CLint) and half-life (t½) values were calculated.
Chromatographic analyses were performed on a Shimadzu UPLC apparatus (Kyoto, Japan) consisting of a gradient pump (model LC-30AD), an automatic injector (model HTC PAL System) and an on-line degasser (model DGU-20A5R). Detection was a triple quadrupole tandem mass spectrometer equipped with a turbo ion spray interface (API 4000/Triple Quad 4500/Triple Quad 5500/Triple Quad 6500). Data acquisition and integration were carried out with LC-MS software (Analyst 1.6) linked directly to the LC-MS/MS system. Chromatographic separations were achieved on a XSelect Hss T3 2.5μ (2.1×30 mm) Column. The mobile phase was 0.1% formic acid in water (A) and 0.1% formic acid in acetonitrile (B). The flow rate was 1.0 mL/min and column was maintained at 40° C.
Half-life (T1/2) data is measured in minutes, and in Table B2, the data is grouped into categories of by the following rules: • T1/2 (hepatic): A=200+; B=100 to 200; C=50 to 100; and D<50.
In vitro clearance (CLint) data is measured in μL/min/mg prot, and in Table B3, the data is grouped into categories of by the following rules: • CLint (microsomal): A<5; B=5 to 10; C=10 to 20; and D=20+.

A word on the IC50: it is the concentration that gives 50% inhibition.

T1 sequence (P43116 whole entry): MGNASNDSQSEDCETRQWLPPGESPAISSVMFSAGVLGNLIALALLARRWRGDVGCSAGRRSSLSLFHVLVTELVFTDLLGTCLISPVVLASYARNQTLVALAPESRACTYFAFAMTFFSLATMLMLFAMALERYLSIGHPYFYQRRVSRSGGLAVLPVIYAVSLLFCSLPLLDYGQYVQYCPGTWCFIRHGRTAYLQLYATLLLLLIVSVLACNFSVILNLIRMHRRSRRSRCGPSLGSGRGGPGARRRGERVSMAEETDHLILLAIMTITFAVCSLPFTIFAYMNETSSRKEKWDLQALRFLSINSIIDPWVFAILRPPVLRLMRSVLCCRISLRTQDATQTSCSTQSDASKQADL

Regarding `Cc1c(CN2CCOc3c(Cl)cc(-n4ccc5cc(F)ccc54)cc3C2)cc[nH]c1=O` [Compound 194, 4-{[9-chloro-7-(5-fluoroindol-1-yl)-3,5-dihydro-2H-1,4-benzoxazepin-4-yl]methyl}-3-methyl-1H-pyridin-2-one], the half-inhibitory concentration (IC50) at EP2 receptor was below 0.1 µM. In addition, in data set [1], the half-life at 1 μM lay within 1.67 to 3.33 h and the microsomal CLint at 1 μM fell in the range of 10 to 20 µL/min/mg.
The corresponding values for `COCc1ncc(CN2CCOc3c(Cl)cc(-n4ccc5cc(F)ccc54)cc3C2)cn1` [Compound 142] are 0.1 to 0.5 µM, above 3.33 h and 5 to 10 µL/min/mg.
In the case of `O=c1cc(CN2CCOc3c(Cl)cc(-n4ccc5cc(F)ccc54)cc3C2)cn[nH]1` [Compound 169, 5-{[9-chloro-7-(5-fluoroindol-1-yl)-3,5-dihydro-2H-1,4-benzoxazepin-4-yl]methyl}-2H-pyridazin-3-one], at EP2 receptor, the IC50 is below 0.1 µM. Besides, in data set [1], the half-life at 1 μM lay within 1.67 to 3.33 h and the microsomal CLint at 1 μM lay within 5 to 10 µL/min/mg.
The matching figures for `O=C(O)c1ncc(CN2CCOc3c(Cl)cc(-n4ccc5cc(F)ccc54)cc3C2)cn1` [Compound 144, 5-{[9-chloro-7-(5-fluoroindol-1-yl)-3,5-dihydro-2H-1,4-benzoxazepin-4-yl]methyl}pyrimidine-2-carboxylic acid]: below 0.1 µM, above 3.33 h and below 5 µL/min/mg.
Take `COc1ncc(CN2CCOc3c(Cl)cc(-n4ccc5c(F)c(F)ccc54)cc3C2)cn1` [Compound 25]: on EP2 receptor, the half-inhibitory concentration (IC50) was 0.1 to 0.5 µM. Besides, in data set [1], the half-life at 1 μM lay within 1.67 to 3.33 h and the microsomal CLint at 1 μM lay within 10 to 20 µL/min/mg.
The corresponding values for `O=c1[nH]ccc(CN2CCOc3c(Cl)cc(-n4ccc5cc(F)ccc54)cc3C2)c1F` [Compound 193] are below 0.1 µM, 0.833 to 1.67 h and 10 to 20 µL/min/mg.
The matching figures for `Fc1ccc2c(ccn2-c2cc(Cl)c3c(c2)CN(Cc2cc[nH]c(=S)c2)CCO3)c1` [Compound 189, 4-{[9-chloro-7-(5-fluoroindol-1-yl)-3,5-dihydro-2H-1,4-benzoxazepin-4-yl]methyl}-1H-pyridine-2-thione]: 0.1 to 0.5 µM, 0.833 to 1.67 h and above 20 µL/min/mg.
In the case of `COc1ncc(CN2CCOc3c(Cl)cc(N4CCc5cc(Cl)ccc54)cc3C2)cn1` [Compound 46, 9-chloro-7-(5-chloro-2,3-dihydroindol-1-yl)-4-[(2-methoxypyrimidin-5-yl)methyl]-3,5-dihydro-2H-1,4-benzoxazepine], the IC50 at EP2 receptor is 0.5 to 1 µM.
As for `Fc1ccc2c(ccn2-c2cc(Cl)c3c(c2)CN(Cc2ccco2)CCO3)c1` [Compound 89], the 50% inhibitory concentration (IC50) on EP2 receptor was above 5 µM.
Still for that read-out and setting: under `CC(C)(C)OC(=O)Nc1ccc(CN2CCOc3c(Cl)cc(-n4ccc5cc(F)ccc54)cc3C2)nn1` [Compound 168] stands above 5 µM; under `CNc1ncc(CN2CCOc3c(Cl)cc(-n4ccc5cc(F)ccc54)cc3C2)cn1` [Compound 147], 0.1 to 0.5 µM.
On to `Cc1[nH]c(=O)ncc1CN1CCOc2c(Cl)cc(-n3ccc4cc(F)ccc43)cc2C1` [Compound 156], for which the IC50 on EP2 receptor was below 0.1 µM. Also, in data set [1], the half-life at 1 μM lay in the range of 1.67 to 3.33 h and the microsomal CLint at 1 μM lay in the range of 5 to 10 µL/min/mg.
With `COc1ncc(CN2CCOc3c(Cl)cc(-c4coc5ccccc45)cc3C2)cn1` [Compound 56], the IC50 on EP2 receptor was 1 to 5 µM.
The same measure, in the same setting: under `COc1ncc(CN2CCOc3c(Cl)cc(N4Cc5ccccc5C4=O)cc3C2)cn1` [Compound 48] stands above 5 µM; under `Fc1ccc2c(ccn2-c2cc(Cl)c3c(c2)CN(Cc2cnc(NC4COC4)nc2)CCO3)c1` [Compound 149, 5-{[9-chloro-7-(5-fluoroindol-1-yl)-3,5-dihydro-2H-1,4-benzoxazepin-4-yl]methyl}-N-(oxetan-3-yl)pyrimidin-2-amine], 0.1 to 0.5 µM; under `CC(C)(C)OC(=O)n1cc(CN2CCOc3c(Cl)cc(-n4ccc5cc(F)ccc54)cc3C2)cn1` [Compound 104], above 5 µM.
Turning to `CC(C)(C)OC(=O)NCc1ncc(CN2CCOc3c(Cl)cc(-n4ccc5cc(F)ccc54)cc3C2)cn1` [Compound 140, tert-butyl N-[(5-{[9-chloro-7-(5-fluoroindol-1-yl)-3,5-dihydro-2H-1,4-benzoxazepin-4-yl]methyl}pyrimidin-2-yl)methyl]carbamate], the IC50 on EP2 receptor fell in the range of 1 to 5 µM.
Still for that read-out and setting: under `CC(c1cc[nH]c(=O)c1)N1CCOc2c(Cl)cc(-n3ccc4cc(F)ccc43)cc2C1` (stereo not shown) [Compound 228] stands above 5 µM; under `Fc1ccc2c(ccn2-c2cc(Cl)c3c(c2)CN(Cc2cccc(C(F)F)c2)CCO3)c1` [Compound 123], above 5 µM.
The same measure, in the same setting: under `COc1ncc(CN2CCOc3c(Cl)cc(-c4cccc5c4CCCC5)cc3C2)cn1` [Compound 55] stands above 5 µM; under `[2H]C1([2H])Oc2c(Cl)cc(-n3ccc4cc(F)ccc43)cc2CN(Cc2cc[nH]c(=O)c2)C1([2H])[2H]` [Compound 227], below 0.1 µM.
Regarding `O=C(O)c1cc(CN2CCOc3c(Cl)cc(-n4ccc5cc(F)ccc54)cc3C2)ccn1` [Compound 185, 4-{[9-chloro-7-(5-fluoroindol-1-yl)-3,5-dihydro-2H-1,4-benzoxazepin-4-yl]methyl}pyridine-2-carboxylic acid], at EP2 receptor, the IC50 lay in the range of 0.1 to 0.5 µM. In data set [1], the half-life at 1 μM was above 3.33 h and the microsomal CLint at 1 μM was below 5 µL/min/mg.
Consider `O=C(O)[C@H]1CC[C@H](CN2CCOc3c(Cl)cc(-n4ccc5cc(F)ccc54)cc3C2)CC1` [Compound 131], for which the 50% inhibitory concentration (IC50) on EP2 receptor lay within 0.5 to 1 µM.
Consider `COc1ncc(CN2CCOc3c(Cl)cc(N4CCSc5ccccc54)cc3C2)cn1` [Compound 52], for which, on EP2 receptor, the half-maximal inhibitory concentration (IC50) was above 5 µM.
Same read-out and setting: under `COc1ncc(CN2CCOc3c(Cl)cc(-n4ccc5ncccc54)cc3C2)cn1` [Compound 37] stands 0.5 to 1 µM; under `Fc1ccc2c(ccn2-c2cc(Cl)c3c(c2)CN(Cc2cn[nH]n2)CCO3)c1` [Compound 108, 9-chloro-7-(5-fluoroindol-1-yl)-4-(2H-1,2,3-triazol-4-ylmethyl)-3,5-dihydro-2H-1,4-benzoxazepine], 1 to 5 µM.
The same measure, in the same setting: under `COc1nccc(CN2Cc3cc(-n4ccc5cc(F)ccc54)cc(Cl)c3OC[C@H]2C)n1` [Compound 10] stands 0.5 to 1 µM; under `COc1ncc(CN2CCOc3c(Cl)cc(-n4ccc5cc(C(F)(F)F)ccc54)cc3C2)cn1` [Compound 15], above 5 µM; under `CC(C)(C)OC(=O)Nc1cc(CN2CCOc3c(Cl)cc(-n4ccc5cc(F)ccc54)cc3C2)ccn1` [Compound 178], above 5 µM.
Same read-out and setting: under `Cc1cn(-c2cc(Cl)c3c(c2)CN(Cc2cnc(=O)[nH]c2)CCO3)c2ccc(F)cc12` [Compound 67] stands 0.1 to 0.5 µM.
For `NCc1ncc(CN2CCOc3c(Cl)cc(-n4ccc5cc(F)ccc54)cc3C2)cn1` [Compound 139, 1-(5-{[9-chloro-7-(5-fluoroindol-1-yl)-3,5-dihydro-2H-1,4-benzoxazepin-4-yl]methyl}pyrimidin-2-yl)methanamine], the 50% inhibitory concentration (IC50) on EP2 receptor was in the range of 0.1 to 0.5 µM.
Same read-out and setting: under `CN(C)c1cc(CN2CCOc3c(Cl)cc(-n4ccc5cc(F)ccc54)cc3C2)ccn1` [Compound 181, 4-{[9-chloro-7-(5-fluoroindol-1-yl)-3,5-dihydro-2H-1,4-benzoxazepin-4-yl]methyl}-N,N-dimethylpyridin-2-amine] stands 1 to 5 µM; under `COC(=O)c1cc(CN2CCOc3c(Cl)cc(-n4ccc5cc(F)ccc54)cc3C2)ccn1` [Compound 186], 0.1 to 0.5 µM; under `COc1ncc(CN2CCOc3c(Cl)cc(-n4ccc5nc(Cl)ccc54)cc3C2)cn1` [Compound 38], 1 to 5 µM.
Still for that read-out and setting: under `CNc1cc(CN2CCOc3c(Cl)cc(-n4ccc5cc(F)ccc54)cc3C2)ccn1` [Compound 180, 4-{[9-chloro-7-(5-fluoroindol-1-yl)-3,5-dihydro-2H-1,4-benzoxazepin-4-yl]methyl}-N-methylpyridin-2-amine] stands 1 to 5 µM; under `Cc1c(CN2CCOc3c(Cl)cc(-n4ccc5cc(F)ccc54)cc3C2)ccnc1Cl` [Compound 191], 1 to 5 µM.
The same measure, in the same setting: under `O=c1ncc(CN2CCOc3c(Cl)cc(-n4ccc5cncnc54)cc3C2)c[nH]1` [Compound 77] stands above 5 µM.
